{"source": "patent US10550105B2", "about": "(Ribon Therapeutics Inc., priority 2018, dated 2020)"}
{"molecular_target": "PARP7 (Homo sapiens (Human), UniProt Q7Z3E1)", "sequence (Q7Z3E1 whole entry)": "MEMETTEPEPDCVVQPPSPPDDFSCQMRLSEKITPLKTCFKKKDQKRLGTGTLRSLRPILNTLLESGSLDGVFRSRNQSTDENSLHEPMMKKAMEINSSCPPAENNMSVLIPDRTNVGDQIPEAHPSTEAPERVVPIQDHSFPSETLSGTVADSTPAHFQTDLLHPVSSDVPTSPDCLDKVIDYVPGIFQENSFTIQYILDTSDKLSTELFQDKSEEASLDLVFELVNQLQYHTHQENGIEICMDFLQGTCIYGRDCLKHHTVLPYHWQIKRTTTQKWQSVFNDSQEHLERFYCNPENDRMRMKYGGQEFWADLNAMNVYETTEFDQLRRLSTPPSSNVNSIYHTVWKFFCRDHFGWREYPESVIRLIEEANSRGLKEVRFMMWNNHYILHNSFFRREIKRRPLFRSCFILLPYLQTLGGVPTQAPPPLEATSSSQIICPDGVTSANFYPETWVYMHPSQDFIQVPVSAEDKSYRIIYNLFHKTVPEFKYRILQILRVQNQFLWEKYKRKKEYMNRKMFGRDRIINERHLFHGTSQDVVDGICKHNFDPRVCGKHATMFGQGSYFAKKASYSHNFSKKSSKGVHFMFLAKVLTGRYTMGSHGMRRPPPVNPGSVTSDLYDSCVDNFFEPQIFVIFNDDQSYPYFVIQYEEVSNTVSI", "assay": "Enzymatic assay for inhibition of PARP7: TR-FRET displacement of biotinylated Probe A from the TIPARP active site", "type": "binding", "settings": "Table A-1", "procedure,_shortened": "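Read-out: 665/615 nm emission ratio (ex 320 nm, 90 μs delay) indexing bound TIPARP–Probe A. Final incubation 30 min, 25° C; compounds in dose response. Curve fit of % inhibition vs concentration; Hill slope floating or fixed at 1 (3-parameter).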", "units": {"IC50": "nM"}}
{"compound": "N#Cc1cnc(N2CCN(C(=O)c3cncc(OC[C@H]4c5ccccc5CN4c4cn[nH]c(=O)c4C(F)(F)F)c3)CC2)nc1", "note": "[Example 396, (R)-2-(4-(5-((2-(6-Oxo-5-(trifluoromethyl)-1,6-dihydropyridazin-4-yl)isoindolin-1-yl)methoxy)nicotinoyl)piperazin-1-yl)pyrimidine-5-carbonitrile]", "IC50": "≥ 1000"}
{"compound": "C[C@@H](COc1cn[nH]c(=O)c1C(F)(F)F)OCCC(=O)N1CCN(c2ccc(C#N)cn2)CC1", "note": "[Example 530C, 6-[4-(3-[[(2S)-1-[[6-Oxo-5-(trifluoromethyl)-1,6-dihydropyridazin-4-yl]oxy]propan-2-yl]oxy]propanoyl)piperazin-1-yl]pyridine-3-carbonitrile]", "IC50": "100 to 1000"}
{"compound": "O=C(C[C@@H]1CC[C@H](COc2cn[nH]c(=O)c2C(F)(F)F)O1)N1CCN(c2ncc(C(F)(F)F)cn2)CC1", "note": "[Example 574 Isomer D, 5-(((2R,5S)-5-(2-Oxo-2-(4-(5-(trifluoromethyl)pyrimidin-2-yl)piperazin-1-yl)ethyl)-tetrahydrofuran-2-yl)methoxy)-4-(trifluoromethyl)pyridazin-3(2H)-one]", "IC50": "< 100"}
{"compound": "C[C@@H](COCCC(=O)N1CCN(c2ncc(C(F)(F)F)cn2)C[C@@H]1C)Nc1cn[nH]c(=O)c1C(F)(F)F", "note": "(single isomer, unassigned) [Example 619 Isomer A]", "IC50": "< 100"}
{"compound": "N#Cc1ccc(N2CCN(C(=O)CCO[C@@H](CO)COc3cn[nH]c(=O)c3C(F)(F)F)CC2)nc1", "note": "(single isomer, unassigned) [Example 573 Isomer A]", "IC50": "< 100"}
{"compound": "N#Cc1ccc(N2CCN(C(=O)[C@H]3CNC[C@H](OC[C@@H]4CCCN4c4cn[nH]c(=O)c4C(F)(F)F)C3)CC2)nc1", "note": "(single isomer, unassigned) [Example 56 Isomer B]", "IC50": "100 to 1000"}
{"compound": "N#Cc1ccc(N2CCN(C(=O)CCOC[C@@H](CO)Oc3cn[nH]c(=O)c3C(F)(F)F)CC2)nc1", "note": "(single isomer, unassigned) [Example 573 Isomer B]", "IC50": "< 100"}
{"compound": "CN1CCC(Oc2ccc3c(c2)CN(c2cn[nH]c(=O)c2C(F)(F)F)C3)CC1", "note": "[Example 263, 5-(5-((1-Methylpiperidin-4-yl)oxy)isoindolin-2-yl)-4-(trifluoromethyl)pyridazin-3(2H)-one]", "IC50": "< 100"}
{"compound": "N#Cc1ccc(N2CCN(C(=O)CCOC3Cc4ccccc4C3Oc3cn[nH]c(=O)c3C(F)(F)F)CC2)nc1", "note": "(stereo not shown) [Example 540, 6-(4-[3-[(1-[[6-Oxo-5-(trifluoromethyl)-1,6-dihydropyridazin-4-yl]oxy]-2,3-dihydro-1H-inden-2-yl)oxy]propanoyl]piperazin-1-yl)pyridine-3-carbonitrile]", "IC50": "100 to 1000"}
{"compound": "CN(CCC(=O)N1CCN(c2ccc(C#N)cn2)CC1)C[C@H]1c2ccccc2CN1c1cn[nH]c(=O)c1C(F)(F)F", "note": "[Example 428, (R)-6-(4-(3-(Methyl((2-(6-oxo-5-(trifluoromethyl)-1,6-dihydropyridazin-4-yl)isoindolin-1-yl)methyl)amino)propanoyl)piperazin-1-yl)nicotinonitrile]", "IC50": "100 to 1000"}
{"compound": "O=C(CCNC[C@@H]1c2ccccc2CN1c1cn[nH]c(=O)c1C(F)(F)F)N1CCN(c2ccc(C(F)(F)F)cn2)CC1", "note": "[Example 629, (S)-5-(1-(((3-Oxo-3-(4-(5-(trifluoromethyl)pyridin-2-yl)piperazin-1-yl)propyl)amino)methyl)isoindolin-2-yl)-4-(trifluoromethyl)pyridazin-3(2H)-one]", "IC50": "< 100"}
{"compound": "C[C@@H](COCCC(=O)N1CCN(c2ccc(C#N)cn2)CC1)Nc1cn[nH]c(=O)c1Br", "note": "[Example 600, 6-(4-[3-[(2S)-2-[(5-bromo-6-oxo-1,6-dihydropyridazin-4-yl)amino]propoxy]propanoyl]piperazin-1-yl)pyridine-3-carbonitrile]", "IC50": "< 100"}
{"compound": "COc1cc2c(cn1)CN(c1cn[nH]c(=O)c1C(F)(F)F)C2", "note": "[Example 11, 5-[6-methoxy-1H,2H,3H-pyrrolo[3,4-c]pyridin-2-yl]-4-(trifluoromethyl)-2,3-dihydropyridazin-3-one]", "IC50": "< 100"}
{"compound": "CN(C)C1CCN(c2cccc3c2CN(c2cn[nH]c(=O)c2C(F)(F)F)C3)CC1", "note": "[Example 281, 5-(4-(4-(Dimethylamino)piperidin-1-yl)isoindolin-2-yl)-4-(trifluoromethyl)pyridazin-3(2H)-one]", "IC50": "100 to 1000"}
{"compound": "O=c1[nH]ncc(N2Cc3ccccc3C2)c1Cl", "note": "[Example 151, 4-Chloro-5-(isoindolin-2-yl)pyridazin-3(2H)-one]", "IC50": "100 to 1000"}
{"compound": "C[C@H](COC[C@@H]1CCCN1c1cn[nH]c(=O)c1C(F)(F)F)CC(=O)N1CCN(c2ccc(C#N)cn2)CC1", "note": "[Example 128B]", "IC50": "< 100"}
{"compound": "N#Cc1ccc(N2CCN(C(=O)NCCOC[C@@H]3CCCN3c3cn[nH]c(=O)c3C(F)(F)F)CC2)nc1", "note": "[Example 126, 4-(5-cyanopyridin-2-yl)-N-(2-[[(2S)-1-[6-oxo-5-(trifluoromethyl)-1,6-dihydropyridazin-4-yl]pyrrolidin-2-yl]methoxy]ethyl)piperazine-1-carboxamide]", "IC50": "< 100"}
{"compound": "O=c1[nH]ncc(N2Cc3ccc(OC4CCCNC4)cc3C2)c1C(F)(F)F", "note": "(stereo not shown) [Example 244, 5-(5-(Piperidin-3-yloxy)isoindolin-2-yl)-4-(trifluoromethyl)pyridazin-3(2H)-one]", "IC50": "100 to 1000"}
{"compound": "CO[C@@H](C)[C@@H](COCCC(=O)N1CCN(c2ncc(C(F)(F)F)cn2)CC1)Nc1cn[nH]c(=O)c1C(F)(F)F", "note": "[Example 698, 5-(((2R,3S)-3-Methoxy-1-(3-oxo-3-(4-(5-(trifluoromethyl)pyrimidin-2-yl)piperazin-1-yl)propoxy)butan-2-yl)amino)-4-(trifluoromethyl)pyridazin-3(2H)-one]", "IC50": "< 100"}
{"compound": "O=c1[nH]ncc(N2Cc3cccc(OCC4CCOC4)c3C2)c1C(F)(F)F", "note": "(stereo not shown) [Example 200, 5-(4-((Tetrahydrofuran-3-yl)methoxy)isoindolin-2-yl)-4-(trifluoromethyl)pyridazin-3(2H)-one]", "IC50": "< 100"}
{"compound": "C[C@@H](COCCC(=O)N1CCN(c2ncc(C(C)(C)C)cn2)CC1)Nc1cn[nH]c(=O)c1C(F)(F)F", "note": "[Example 623, (S)-5-((1-(3-(4-(5-(Tert-butyl)pyrimidin-2-yl)piperazin-1-yl)-3-oxopropoxy)propan-2-yl)amino)-4-(trifluoromethyl)pyridazin-3(2H)-one]", "IC50": "< 100"}
{"compound": "N#Cc1ccc(N2CCN(C(=O)COCCOc3cccc4c3CN(c3cn[nH]c(=O)c3C(F)(F)F)C4)CC2)nc1", "note": "[Example 490, 6-(4-(2-(2-((2-(6-Oxo-5-(trifluoromethyl)-1,6-dihydropyridazin-4-yl)isoindolin-4-yl)oxy)ethoxy)acetyl)piperazin-1-yl)nicotinonitrile]", "IC50": "< 100"}
{"compound": "N#Cc1ccc(N2CCN(C(=O)c3ccc(OCCOCC4CCN(c5cn[nH]c(=O)c5C(F)(F)F)C4)cc3)CC2)nc1", "note": "(stereo not shown) [Example 465, 6-(4-(4-(2-((1-(6-Oxo-5-(trifluoromethyl)-1,6-dihydropyridazin-4-yl)pyrrolidin-3-yl)methoxy)ethoxy)benzoyl)piperazin-1-yl)nicotinonitrile]", "IC50": "< 100"}
{"compound": "COc1cccc2c1CN(c1cn[nH]c(=O)c1C(F)(F)F)C2C", "note": "(stereo not shown) [Example 308, 5-(4-Methoxy-1-methylisoindolin-2-yl)-4-(trifluoromethyl)pyridazin-3(2H)-one]", "IC50": "100 to 1000"}
{"compound": "N#Cc1ccc(N2CCN(CCCOC[C@@H]3CCCN3c3cn[nH]c(=O)c3C(F)(F)F)CC2)nc1", "note": "[Example 90]", "IC50": "< 100"}
